From a melting point compilation (Tetko et al.; mined from patent text by program, amines drawn as free bases though some values may be those of a salt)

Compound	melting point
CSC1=C(c2cc3ccccc3s2)N2CCN=C2S1	95 to 97 °C
O=c1cc(-c2ccc(OCCOCCOCCOc3ccc(-c4cc(=O)c5c(O)cc(O)cc5o4)cc3)cc2)oc2cc(O)cc(O)c12	143 to 145 °C
c1cc(Cc2nnn[nH]2)cc(OCc2ncc3ccccc3n2)c1	129 to 131 °C
c1ccc(C(CCOc2ccc(CCC3=NCCCO3)cc2)(c2ccccc2)c2ccccc2)cc1	60 to 63 °C
CCCN1CC=C(c2c[nH]c3ccc(OC)cc23)CC1	164 °C
OCc1cn(-c2cccc(SC(F)(F)F)c2)cn1	73 to 75 °C
O=c1[nH]c2ccc3c(c2[nH]c1=O)CCCN3	> 285 °C
C#CC[C@@H](NC(=O)OC(C)(C)C)c1nc2cc(Cl)ccc2c(=O)n1Nc1ccccc1	155 to 157 °C
CC(c1ccccc1)N1CC(CF)(C(=O)NCc2ccccc2)CC1=O (stereo not given)	114 to 116 °C
O=C(O)[C@H](CC(=NO)c1ccc2oc3ccccc3c2c1)NC(=O)C(F)(F)F	128 to 130 °C
COc1ccc(C(=O)N2c3ccccc3C(n3c4ccccc4c4ccccc43)CC2CCCCC(=O)O)cc1OC (stereo not given)	226 to 228 °C
Cc1c(OCCNC(=O)OC(C)(C)C)noc1-c1ccccc1	118 to 120 °C
O=C(NN1CCNC1=O)Sc1ccccc1	154 to 159 °C
NC(=O)Nc1ccccc1CCc1n[nH]c2c1c(=O)n(-c1ccccc1)c1ncccc21	300 to 305 °C
C[C@@H](F)c1nc(N)nc(N[C@@H]2CCOc3ccccc32)n1	110 to 112 °C
O=C(NCCN1C=CC(c2ccccc2)=CC1)c1ccccc1S(=O)(=O)O	272 to 274 °C
CCOC(=O)C1=C(C)NC(C)=C(C(=O)OCC)C1c1ccc(Cl)cc1Cl	148 to 149 °C
Cc1cc([N+](=O)[O-])cc(C(=O)NC(C)C)c1NC(=O)c1cc(C(F)(F)F)nn1-c1ncccc1Cl	170 to 172 °C
C[C@H]1C[C@@](O)(c2cnc(Cl)s2)CCO1	40 to 42 °C
N#CC1CN1C(=O)CNC=O (stereo not given)	51 to 56 °C

Compound	melting point
CCOCC1=C(C(=O)OCC)C(c2ccccc2Cl)C(C(=O)OCC)=C(C)N1 (stereo not given)	115 °C
N#Cc1cccc(C[C@H](N)C(=O)O)c1	248 to 250 °C
CC(=O)N(C)c1cc2c(nc(C)n2C)c(O)c1CN(C)C	181 to 184 °C
O=C1c2ccccc2C(=O)N1CC1CN(Cc2ccccc2)CCN1Cc1ccccc1 (stereo not given)	124 °C
Cc1nc2ccc3c(c2o1)OC(CN1C2CCC1CC(O)(c1ccccc1)C2)CO3 (stereo not given)	203 to 205 °C
CCC(C)n1nc(C)n(-c2ccc(N3CCCN(c4ccc(C(=O)OC)cc4)CC3)cc2)c1=O (stereo not given)	152 to 153 °C
O=c1c(Br)c(OCc2ccc(Cl)cc2F)cnn1-c1ccc(Cl)c(Cl)c1	172 to 173 °C
O=S(=O)(c1ccc(Cl)cc1)c1ccc(-c2ccccc2)cc1	169 °C
C1=C(COc2ccccc2)CCN(Cc2c[nH]c3ccccc23)C1	140 to 142 °C
CN(C)C1CCc2[nH]c3cc(O)ccc3c2C1 (stereo not given)	286 to 288 °C
CC(=O)Nc1cc(Oc2ccc3c(c2)CCN3C(=O)Nc2ccc(OC(C)(C)C(=O)O)c(C(F)(F)F)c2)ncn1	219 to 220 °C
CC(C)(C)Nc1c(NCc2ccc(Cl)c(Cl)c2)c(=O)c1=O	302 to 303 °C
Cc1cc(CCCCCCCOc2ccc(C3=NCCO3)cc2)on1	89 to 90 °C
O=c1[nH]c2sc(Br)c(Br)c2[nH]c1=O	> 300 °C
O=C(N[C@H]1CC[C@H](CCN2CCC(c3cccc4c3CCO4)CC2)CC1)c1ccc(-c2ccccc2)cc1	241 °C
CC(=O)N1CCC(CNc2nc3ccccc3s2)CC1	138 °C
Oc1cc(O)c2c(-c3cc(F)cc(F)c3)coc2c1	149 to 151 °C
CC(C)(C)N(NC(=O)c1ccccc1)C(=O)c1cccs1	> 200 °C
COc1c(Br)c(-c2csc(C(C)C)n2)cc2oc(=O)c(Cl)c(C)c12	186 °C
COc1cccc2c(COCCC(c3ccccc3)c3ccccc3)coc12	147 to 149 °C

Compound	melting point
CC(=O)c1c(C)c(NC=O)c(C)c2c1OCC2c1ccc(C(C)C)cc1 (stereo not given)	177 to 179 °C
Cc1c2c(nc3ccccc13)CCN(C(=O)C(F)(F)F)CC2	147 °C
Oc1ccc2c(c1)Oc1cc(O)ccc1C2(C(F)(F)F)C(F)(F)F	209 to 210 °C
Cn1cc(C2=C(c3cn(C)c4ccc(O)cc34)C(=O)NC2=O)c2ccccc21	284 to 287 °C
CCN1CCN(c2ccc(Br)nc2)CC1	30 to 31 °C
Cc1ccc2c(c1)[nH]c(=O)n2C1CCN(C2CCN(C(=O)OC(C)(C)C)CC2)CC1	210 to 211 °C
O=C(NC1CCN(CCc2ccc3ccccc3c2)CC1)c1ccccc1	189 to 191 °C
CSc1ccc(CSc2nnc(-c3ccc4[nH]ncc4c3)o2)cc1C(F)(F)F	184 to 185 °C
COc1cccc(-c2cnc3c(-c4cc(-c5ccccc5)cs4)cnn3c2O)c1	> 300 °C
CCNC(=O)NCC1=C(n2ccccc2=O)c2cc([N+](=O)[O-])ccc2OC1(C)C	197 °C
C=Cc1cc(CNC(=O)C(F)=Cc2ccc(C(C)(C)C)cc2)cc(F)c1NS(C)(=O)=O	165 to 167 °C
O=C(c1cc2c(cn1)[nH]c1ccccc12)n1ccnc1	> 280 °C
O=C1NC(=O)C(Cc2ccc(OCCON=Cc3cnc4ccccc4c3)cc2)S1 (stereo not given)	182 to 184 °C
CC(C)OC(=O)c1nsc2ccc(-n3c(=O)cc(C(F)(F)F)n(C)c3=O)cc12	94 to 97 °C
N#Cc1c(O)[nH]c2cccnc12	> 250 °C
CCN(c1nc(C)cc(C(=O)c2ncc[nH]2)n1)c1ccc(C(C)C)cc1Br	75 to 76 °C
CCOC(=O)CCc1[nH]c2cccc3c2c1CC1C3CC(NC(=O)N(CC)CC)CN1C (stereo not given)	160 to 161 °C
CN(CCC#N)CCc1coc(-c2cc(C(C)(C)C)c(O)c(C(C)(C)C)c2)n1	104 to 105 °C

Next, values leading:

melting point	Compound
147 to 150 °C	COc1c(C)c(C)c(OC)c([N+](=O)[O-])c1[N+](=O)[O-]
135 to 139 °C	COc1cc2c(cc1OC)CCCC(C(=O)N1CCN(Cc3cc(OC)c(OC)c(OC)c3)CC1COC(C)=O)=C2 (stereo not given)
184 to 187 °C	CC1=C(/C=C/C(C)=C/C=C/C(C)=C/C(=O)O)C(C)(C)CCC1=O
200 to 202 °C	O=C(Nc1ccc2nc(CN3CCCC3)ccc2c1)c1ccc(-c2ccc(Cl)cc2)cc1
261 to 263 °C	COCCN1CCc2sc(Nc3ncc(F)c(C)n3)nc2-c2c[nH]nc21
138 to 140 °C	c1ccc(Cc2c[nH]c(-c3ncc[nH]3)n2)cc1
54 to 55 °C	CC(=CCO)c1ccc(C2CCCCC2)cc1
129 to 131 °C	CC(=O)O[C@H]1[C@H](OC(C)=O)[C@@H](CCl)OC[C@@H]1OC(C)=O
338 to 339 °C	COc1ccccc1-n1c(=O)[nH]c2c(C(N)=O)nc(-c3cccc(C(N)=O)c3)nc21
175 °C	O=Cc1ccc(C=CC(=O)N2CCc3c([nH]c4ccccc34)C2c2ccc3c(c2)CCO3)cc1 (stereo not given)
256 to 258 °C	CCc1cc2c(s1)SCCc1cc(=O)[nH]nc1-2
78 °C	COc1ccc(C=CC(=O)CN2CCOCC2)cc1
> 290 °C	CN1C(=O)C(c2c[nH]c3ccc(F)cc23)=C(c2c[nH]c3ccc(F)cc23)C1=O
75 to 77 °C	CC(C)C(=O)c1ccc(N2CCOCC2)cc1
210 to 220 °C	N#Cc1ccc2c(c1)c1cc(C(=N)Nc3cccc(C(F)(F)F)c3)ccc1n2Cc1ccccc1
80 to 82 °C	O=C1c2cc(F)ccc2OC[C@H]2CCCN12
140 to 143 °C	COC(=O)c1cc(C)cc(OC)c1C1=CC(=O)c2c(O)cccc2C1=O
115 to 117 °C	Cc1ccc(CSc2nc3cscc3n2C(=O)OC(C)(C)C)nc1
137 to 140 °C	CC(=O)OCCc1cc2c(s1)S(=O)(=O)CCc1cc(=O)n(-c3ccc(Cl)cc3)nc1-2
134 to 135 °C	COc1cccc(C23CCCC=C2C(=O)N(CCc2ccccc2)C(=O)C3)c1 (stereo not given)
141 to 144 °C	Cc1cc(/C=C/C(c2cc(Cl)cc(Cl)c2)C(F)(F)F)ccc1C(=O)NCc1cncnc1 (stereo not given)

melting point	Compound
179 °C	Cn1c(C(F)(F)F)cc(=O)n(Nc2cccc(Cl)c2Cl)c1=O
191 to 193 °C	O=c1ccc(-c2ccc(C(F)(F)F)cc2)n[nH]1
86 °C	CCN(CC)C(=O)c1cc2ccsc2c(-c2ccccc2Cl)n1
173 to 174 °C	CCOCc1nc2c(N)nc3cccnc3c2n1Cc1ccccc1
128 °C	CCCCc1sc2ccccc2c1C(=O)c1ccc(NS(=O)(=O)c2ccc(C)cc2)cc1
120 to 122 °C	CN(C)CCN(C)C(=O)Cn1c(-c2ccc(Cl)cc2)nc2cccnc21
125 to 128 °C	CC(=O)CCC1(C(C)C)Cc2cc(OCC(=O)O)c(Cl)c(Cl)c2C1=O (stereo not given)
205 to 206 °C	N#Cc1cn2c(nc1=O)CCCCC2
151 to 153 °C	Cc1noc(NS(=O)(=O)c2cccc([N+](=O)[O-])c2)c1Br
128 to 129 °C	CC(=O)c1ccc2c(c1)Cc1cccc(C(C)=O)c1-2
149 °C	COC(C)(OC)c1nn(-c2c(Cl)cc(C(F)(F)F)cc2Cl)c(N)c1SC
237 to 238 °C	CCn1cnc2c(Nc3cccc([N+](=O)[O-])c3)nc(N[C@H]3CC[C@H](O)CC3)nc21
142 to 144 °C	O=C(O)C=Cc1ccc(NC(=O)CCCCCNC(=O)OCc2ccccc2)cc1
173 to 175 °C	CSc1nn(C)c2ccccc2c1=O
58.5 to 60.5 °C	CS(=O)c1ccc(C(=O)CCCCCC#N)cc1 (stereo not given)
> 225 °C	Cc1nc(O)c(Br)cc1Br
210 to 211 °C	CCC(=O)N(C(=O)CC)c1cc(-c2c(-c3cccc(C)c3)nc3cccnn23)ccn1
100 to 102 °C	COC(=O)C(c1ccccc1Cl)C1CNc2sc(OC(=O)c3ccc([N+](=O)[O-])cc3)cc2C1 (stereo not given)
202 to 205 °C	Cc1cc(C(=O)NCCc2ccc(CCC(=O)O)cc2)n[nH]1
132 to 135 °C	CC(C)COc1nc(N)c2ncn(C3C=CCCC3)c2n1 (stereo not given)
67 to 68 °C	c1ccc(CCc2nc(COc3ccc(CCCn4ccnc4)cc3)co2)cc1
